Earlier results as cited in patent publication US10973866B2, “Compositions and methods for treating, inhibiting the onset, and slowing the progression of erectile dysfunction including naturally occurring age related erectile dysfunction” (K.L.R.M., LLC, priority 2010, dated 2021).

Assays:
[1] = human, in vivo
erectile function = conditions: men in their 30's with normal erectile function

SMILES	side effects [1]	erectile function as measured by the IIEF (erectile function)	refractory period (erectile function)
NC(=O)NCCC[C@H](N)C(=O)O [L-citrulline]	no known side effects		
CCCc1nn(C)c2c(=O)[nH]c(-c3cc(S(=O)(=O)N4CCN(C)CC4)ccc3OCC)nc12 [Viagra]		increased erectile function	decrease in the refractory period
